Results reported in patent US20060217352A1, “Method for treating thrombosis” (Kowa Co., Ltd., priority 2005, published 2006).

Key:
clot formation = assay: Thromboelastograph maximal amplitude (MA) of clot formation after 14-day oral administration to guinea pigs; type: in vivo, Hartley male guinea pigs; conditions: guinea pig, oral once a day for 14 days, pitavastatin calcium 3 mg/kg and/or aspirin 100 mg/kg; for Maximal amplitude (MA) of clot formation: blood after 18 hours of fasting, average ± standard deviation; for Maximal amplitude (MA) of clot formation, relative value: relative to control group (100)
Protocol: The animals used in the test were 6 week old Hartley male guinea pigs (Japan SLC, Inc.), and these animals were kept throughout the test period in a breeding chamber with controlled day and night cycle (light period under illumination of room light, 7 am to 7 pm) at a temperature of 23±3° C. and a humidity of 55±15%.
24 guinea pigs were divided into 4 groups (5 or 6 animals in each group), namely, control group (with no drug administration), the group solely administered with pitavastatin calcium (3 mg/kg), the group solely administered with aspirin (100 mg/kg), and the group administered with a combination of pitavastatin calcium (3 mg/kg) and aspirin (100 mg/kg).

whole blood coagulation = assay: Thromboelastograph whole blood coagulation time (r+k value) after 14-day oral administration to guinea pigs; conditions: guinea pig, oral once a day for 14 days, pitavastatin calcium 3 mg/kg and/or aspirin 100 mg/kg; for Whole blood coagulation time (r + k value): blood after 18 hours of fasting, average ± standard deviation; for Whole blood coagulation time (r + k value), relative value: relative to control group (100)

Compound | Maximal amplitude (MA) of clot formation (clot formation) [mm] | Maximal amplitude (MA) of clot formation, relative value (clot formation) [%] | Whole blood coagulation time (r + k value) (whole blood coagulation) [min] | Whole blood coagulation time (r + k value), relative value (whole blood coagulation) [%]
O=C(O)C[C@H](O)C[C@H](O)/C=C/c1c(C2CC2)nc2ccccc2c1-c1ccc(F)cc1 [Pitavastatin, (3R,5S,6E)-7-[2-cyclopropyl-4-(4-fluorophenyl)-3-quinolyl]-3,5-dihydroxy-6-heptenoic acid] | 71.8 ± 5.0 | 99 | 12.8 ± 2.4 | 110
CC(=O)Oc1ccccc1C(=O)O [Aspirin, acetyl salitylic acid] | 71.0 ± 3.1 | 98 | 12.7 ± 1.6 | 109
